# Laboratory results: BindingDB's records for patent US20250230171 (Moma Therapeutics, 2025)
# Target: T1, DNA polymerase theta (POLQ) (2-894)
# T1 construct: 2-894
# Assay: ATPase Assay
# Protocol: POLθ-mediated ATP hydrolysis was measured using the ADP-Glo Kinase Assay (Promega Corporation, Madison, WI). Reactions were performed in white 384-well small-volume microplates (Greiner Bio-One, Frickenhausen, Germany) using a total volume of 15 μL. The ATPase reaction consisted of 1 nM biotinylated Avi-POLθ[2-894], 5 nM of a 50 nucleotide poly-thymine repeat single-stranded DNA (PolyT(50) ssDNA), and 100 μM ATP in 5 μL of assay buffer (50 mM Tris, pH 7.5, 80 mM KCl, 10 MgCl2, 1 mM DTT, 5% glycerol, 0.01% BSA, 0.01% Tween-20). Inhibition of POLΘATPase activity was determined by preparing 11-point serial dilutions of the test compounds in 100% DMSO, then transferring 30 nL of the compounds into the ATPase reaction using an Echo acoustic liquid handler (Beckman Coulter, Brea, CA). DMSO-treated wells containing either all of the reaction components (1 nM biotinylated Avi-POLθ[2-894], 5 nM PolyT(50) ssDNA, 100 μM ATP) or with assay buffer substituted for the biotinylated Avi-POLθ[2-894](0 nM biotinylated Avi-POLθ[2-894], 5 nM PolyT(50) ssDNA, 100 μM ATP) were used to define the maximum and minimum response in the assay. Following a one-hour incubation at ambient temperature, 5 μL of ADP-Glo Reagent was added to the ATPase reaction, and this mixture was allowed to incubate at ambient temperature for an additional hour. Lastly, 5 μL of Kinase Detection Reagent was added, followed by a third one-hour incubation at ambient temperature. The reagent concentrations listed represent the amounts only in the 5 μL ATPase reaction volume.
row,Structure (SMILES),IC50 [nM]
1,"COc1cnc(Cl)cc1-c1cc(C)ncc1C(=O)Nc1nc2c(s1)CN(C(=O)c1nccnc1C)C2 [US20250230171, Compound 520]",8
2,"COc1cnc(Cl)cc1-c1cc(C)ncc1C(=O)Nc1nc2c(s1)CN(C(=O)c1cccnc1Cl)C2 [US20250230171, Compound 524]",8
3,"COc1cnc(Cl)cc1-c1cc(C)ncc1C(=O)Nc1nc2c(s1)CN(C(=O)c1cncn1C1CC1)C2 [US20250230171, Compound 527]",8
4,"COc1cnc(Cl)cc1-c1cc(C)ncc1C(=O)Nc1nc2c(s1)CN(C(=O)c1nc(C)c(C)o1)C2 [US20250230171, Compound 529]",8
5,"COc1cnc(Cl)cc1-c1cc(C)ncc1C(=O)Nc1nc2c(s1)CN(C(=O)c1cc(C)nc(C(F)F)n1)C2 [US20250230171, Compound 530]",8
6,"COc1cnc(Cl)cc1-c1cc(C)ncc1C(=O)Nc1nc2c(s1)CN(C(=O)c1cnc(OC)c(C(F)F)n1)C2 [US20250230171, Compound 531]",8
7,"COc1cnc(Cl)cc1-c1cc(C)ncc1C(=O)Nc1nc2c(s1)CN(C(=O)C1CC3(CC(C#N)C3)C1)C2 (stereo unspecified) [US20250230171, Compound 532]",8
8,"COc1cc2nn(C)cc2cc1-c1cc(C)ncc1C(=O)Nc1nc2c(s1)CN(C(=O)c1cccnc1OC)C2 [US20250230171, Compound 533]",8
9,"COc1ccc(C#N)cc1-c1cc(C)ncc1C(=O)Nc1nc2c(s1)CN(C(=O)c1cccc(C(F)F)n1)C2 [US20250230171, Compound 538]",32.5
10,"COc1ncc(Cl)cc1-c1cc(C)ncc1C(=O)Nc1nc2c(s1)CN(C(=O)c1cccc(C(F)F)n1)C2 [US20250230171, Compound 539]",32.5
11,"COc1ncc(C#N)cc1-c1cc(C)ncc1C(=O)Nc1nc2c(s1)CN(C(=O)c1ccc(C(F)F)cn1)C2 [US20250230171, Compound 540]",32.5
12,"COc1cnc(Cl)cc1-c1cc(C)ncc1C(=O)Nc1nc2c(s1)CN(C(=O)c1cncc(C(F)F)n1)C2 [US20250230171, Compound 541]",32.5
13,"COc1cnc(Cl)cc1-c1cc(C)ncc1C(=O)Nc1nc2c(s1)CN(C(=O)c1nc(C)cn1C)C2 [US20250230171, Compound 543]",32.5
14,"COc1ccc(C(=O)N2Cc3nc(NC(=O)c4cnc(C)cc4-c4cc(Cl)ncc4OC)sc3C2)nn1 [US20250230171, Compound 545]",32.5
15,"COc1cnc(Cl)cc1-c1cc(C)ncc1C(=O)Nc1nc2c(s1)CN(C(=O)c1cnc(C)n1C)C2 [US20250230171, Compound 546]",100
16,"COc1cnc(Cl)cc1-c1cc(C)ncc1C(=O)Nc1nc2c(s1)CN(C(=O)c1ncc(Cl)cc1C(C)(F)F)C2 [US20250230171, Compound 595]",8
